The values that follow come from PubChem BioAssay (NCI).

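A five-concentration, 48-hour dose response in 96-well plates underlies each endpoint, interpolated linearly between surrounding concentrations. At the GI50, growth is halved. At the TGI there is no net growth.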

Some test systems named below: SK-MEL-28 melanoma; RPMI-8226 leukemia; OVCAR-5 ovarian; NCI/ADR-RES ovarian; SN12C renal; KM12 colon; SK-MEL-2 melanoma; U251 CNS; CAKI-1 renal; A498 renal.
Common to all, as to experiment: NCI-60 cell line screen, 48 h

Regarding `C=C1C(O)C2C(=C(CCc3ccccc3)C13CC3)C(=O)C(C)(CO)C2O` (stereo not drawn), the GI50 with SK-MEL-28 melanoma is more than 100 µM; in the assay with RPMI-8226 leukemia it was 22.2 µM; in the assay with OVCAR-5 ovarian it was more than 100 µM; in the assay with NCI/ADR-RES ovarian it was more than 100 µM; with SN12C renal, more than 100 µM; in the assay with KM12 colon it was more than 100 µM. Moreover, the GI50 in the assay with SK-MEL-2 melanoma, with U251 CNS and in the assay on CAKI-1 renal was more than 100 µM each time. The TGI in the assay with SK-MEL-28 melanoma is more than 100 µM; with RPMI-8226 leukemia, 70.2 µM; in the assay with OVCAR-5 ovarian, more than 100 µM; in the assay with NCI/ADR-RES ovarian, more than 100 µM; with SN12C renal, more than 100 µM; with KM12 colon it was more than 100 µM. The TGI in the assay on SK-MEL-2 melanoma, in the assay on U251 CNS and in the assay on CAKI-1 renal was more than 100 µM each time.

On to `Cc1nc(Nc2ccc(Cl)cc2)sc1C(=O)NNc1ccc([N+](=O)[O-])cc1[N+](=O)[O-]`, for which the TGI in the assay with SK-MEL-28 melanoma came out at 34.1 µM; in the assay on RPMI-8226 leukemia, 51.8 µM; in the assay on OVCAR-5 ovarian, 30.7 µM; in the assay with A498 renal, 30.6 µM; in the assay with SN12C renal, 36.2 µM; in the assay with KM12 colon, 33.9 µM. The TGI in the assay with SK-MEL-2 melanoma turned out to be 32.7 µM; with U251 CNS, 29.5 µM; in the assay with CAKI-1 renal, 44.1 µM.

On to `CC(=O)[O][Ga]([Cl])[O]C(C)=O`, for which the GI50 with SK-MEL-28 melanoma, in the assay with RPMI-8226 leukemia, with OVCAR-5 ovarian, with A498 renal, in the assay with SN12C renal and in the assay with KM12 colon was more than 100 µM in each case. Besides, the GI50 in the assay with SK-MEL-2 melanoma, in the assay on U251 CNS and in the assay with CAKI-1 renal was more than 100 µM each time. Moreover, the TGI with SK-MEL-28 melanoma, in the assay with RPMI-8226 leukemia, in the assay on OVCAR-5 ovarian, in the assay with A498 renal, with SN12C renal and in the assay on KM12 colon was more than 100 µM throughout. Further, the TGI with SK-MEL-2 melanoma, in the assay on U251 CNS and in the assay on CAKI-1 renal was more than 100 µM each time.

With `CC(C)=CC(=O)C/C(=N\NC(N)=S)C(=O)Nc1ccc(Cl)cc1`, the TGI in the assay on SK-MEL-28 melanoma, with RPMI-8226 leukemia, in the assay with OVCAR-5 ovarian, with A498 renal, with SN12C renal and in the assay with KM12 colon was more than 100 µM in each case. Also, the TGI in the assay with SK-MEL-2 melanoma, in the assay on U251 CNS and in the assay on CAKI-1 renal was more than 100 µM in each case.

With `C=C1C(=O)O[C@@H]2C[C@@H](C)[C@@H]3C=CC(=O)[C@@]3(C)[C@@H](OC(=O)CC(=O)O[C@H]3[C@@H]4C(=C)C(=O)O[C@@H]4C[C@@H](C)[C@@H]4C=CC(=O)[C@]43C)[C@H]12`, the TGI with SK-MEL-28 melanoma worked out at 0.11 µM; in the assay on RPMI-8226 leukemia it was 0.0866 µM; in the assay with OVCAR-5 ovarian, 0.39 µM; in the assay with A498 renal, 0.467 µM; in the assay on SN12C renal, 0.0763 µM; in the assay on KM12 colon, 0.16 µM. Moreover, the TGI worked out at 0.224 µM in the assay with SK-MEL-2 melanoma, 0.149 µM in the assay on U251 CNS and 0.111 µM with CAKI-1 renal.

On to `COc1ccc(OC)c(/C(C)=N/NC(N)=S)c1`, for which the TGI in the assay on SK-MEL-28 melanoma, in the assay with RPMI-8226 leukemia, with OVCAR-5 ovarian, in the assay on A498 renal, with SN12C renal and in the assay on KM12 colon was more than 100 µM in each case. In addition, the TGI in the assay with SK-MEL-2 melanoma, in the assay with U251 CNS and with CAKI-1 renal was more than 100 µM each time.

Consider `C#Cc1cccc(N2C(=O)CCC2=O)c1`, for which the TGI in the assay with SK-MEL-28 melanoma stood at 32.3 µM; in the assay with RPMI-8226 leukemia, 15.9 µM; with OVCAR-5 ovarian, 32.5 µM; with A498 renal it was 29.5 µM; with SN12C renal, 33.6 µM; in the assay with KM12 colon, 19.5 µM. Further, the TGI in the assay with SK-MEL-2 melanoma amounted to 36.6 µM; with U251 CNS it was 33 µM; in the assay with CAKI-1 renal it was 29 µM.

Turning to `COc1ccc(S(=O)(=O)Nc2ccccc2C(=O)O)cc1`, the TGI in the assay with SK-MEL-28 melanoma, with RPMI-8226 leukemia, in the assay on OVCAR-5 ovarian, in the assay with A498 renal, with SN12C renal and in the assay with KM12 colon was more than 100 µM throughout. Moreover, the TGI in the assay with SK-MEL-2 melanoma, in the assay on U251 CNS and with CAKI-1 renal was more than 100 µM throughout.

As to `CC(C)CC(NC(=O)c1cccc(O)c1O)C(=O)NCc1cc(CNC(=O)C(CC(C)C)NC(=O)c2cccc(O)c2O)cc(CNC(=O)C(CC(C)C)NC(=O)c2cccc(O)c2O)c1` (stereo not drawn), the TGI with SK-MEL-28 melanoma is 68.5 µM; with RPMI-8226 leukemia, 21.8 µM; with OVCAR-5 ovarian, 27.1 µM; with A498 renal it was more than 100 µM; in the assay on SN12C renal, 56.3 µM; in the assay on KM12 colon, 41.9 µM. The TGI is 29 µM with SK-MEL-2 melanoma, 29.5 µM in the assay with U251 CNS and more than 100 µM with CAKI-1 renal.

Consider `Cc1ccc(NC(=O)C2C(=O)N(c3ccc(C)cc3)C(=O)/C2=N\NC(N)=S)cc1` (stereo not drawn), for which the TGI with SK-MEL-28 melanoma, in the assay on RPMI-8226 leukemia, in the assay with OVCAR-5 ovarian, with A498 renal, in the assay with SN12C renal and with KM12 colon was more than 100 µM each time. Further, the TGI in the assay with SK-MEL-2 melanoma, in the assay on U251 CNS and in the assay on CAKI-1 renal was more than 100 µM each time.
